Experimental data: ChEMBL document CHEMBL3259778, “Design and synthesis of novel indole-chalcone fibrates as lipid lowering agents” (2014)
The source made the active and inactive calls. The calls are words filed in the database; no cut-off is given here.

Legend:
[1] = Antioxidant activity assessed as hydroxyl ion scavenging activity measured as MDA formation at 200 ug/ml after 90 mins by spectrophotometry relative to control; assay type: functional
Rattus norvegicus [2] = experiment: Antidyslipidemic activity in triton-induced hyperlipidemic Charles Foster rat assessed as plasma post heparin lipolytic activity at 100 mg/kg, po relative to control; assay type: functional
Rattus norvegicus [3] = experiment: Antidyslipidemic activity in triton-induced hyperlipidemic Charles Foster rat assessed as reduction in total cholesterol in plasma at 100 mg/kg, po relative to control; assay type: functional; parameters: scale not given: the % may be the effect or the level left
Rattus norvegicus [4] = experiment: Antidyslipidemic activity in triton-induced hyperlipidemic Charles Foster rat assessed as reduction in phospholipid in plasma at 100 mg/kg, po relative to control; assay type: functional; parameters: scale not given: the % may be the effect or the level left
Rattus norvegicus [5] = experiment: Antidyslipidemic activity in triton-induced hyperlipidemic Charles Foster rat assessed as reduction in triglyceride in plasma at 100 mg/kg, po relative to control; assay type: functional; parameters: scale not given: the % may be the effect or the level left
[6] = Antioxidant activity assessed as superoxide ion scavenging activity measured as formazone formation at 200 ug/ml after 90 mins by spectrophotometry relative to control; assay type: functional
[7] = Antioxidant activity assessed as suppression of microsomal lipid peroxidation measured as MDA formation at 200 ug/ml after 90 mins by spectrophotometry relative to control; assay type: functional
Rattus norvegicus [8] = experiment: Antidyslipidemic activity in triton-induced hyperlipidemic Charles Foster rat assessed as increase in total lipolytic activity of lipoprotein lipase at 100 mg/kg, po relative to control; assay type: functional, organism-based; parameters: dose 100 mg/kg
Rattus norvegicus [9] = experiment: Antidyslipidemic activity in triton-induced hyperlipidemic Charles Foster rat assessed as reduction in triglyceride in plasma at 50 to 150 mg/kg, po relative to control; assay type: functional; parameters: scale not given: the % may be the effect or the level left; details: dose mg/kg 50-150
Rattus norvegicus [10] = experiment: Antidyslipidemic activity in triton-induced hyperlipidemic po dosed Charles Foster rat assessed as reduction in LDL in plasma relative to control; assay type: functional, organism-based
Rattus norvegicus [11] = experiment: Antidyslipidemic activity in triton-induced hyperlipidemic po dosed Charles Foster rat assessed as increase in HDL in plasma relative to control; assay type: functional, organism-based
Rattus norvegicus [12] = experiment: Antidyslipidemic activity in triton-induced hyperlipidemic Charles Foster rat assessed as reduction in total cholesterol in plasma at 50 to 150 mg/kg, po relative to control; assay type: functional; parameters: scale not given: the % may be the effect or the level left; details: dose mg/kg 50-150
Rattus norvegicus [13] = experiment: Antidyslipidemic activity in triton-induced hyperlipidemic Charles Foster rat assessed as reduction in phospholipid in plasma at 50 to 150 mg/kg, po relative to control; assay type: functional; parameters: scale not given: the % may be the effect or the level left; details: dose mg/kg 50-150
Rattus norvegicus [14] = experiment: Antidyslipidemic activity in triton-induced hyperlipidemic po dosed Charles Foster rat assessed as reduction in VLDL in plasma relative to control; assay type: functional, organism-based

Structure (SMILES)	Activity [1] [%]	Activity (Rattus norvegicus [2]) [%]	Activity (Rattus norvegicus [3]) [%]	Activity (Rattus norvegicus [4]) [%]	Activity (Rattus norvegicus [5]) [%]	Activity [6] [%]	Activity [7] [%]	Activity (Rattus norvegicus [8])	Activity (Rattus norvegicus [9]) [%]	Activity (Rattus norvegicus [10])	Activity (Rattus norvegicus [11])	Activity (Rattus norvegicus [12]) [%]	Activity (Rattus norvegicus [13]) [%]	Activity (Rattus norvegicus [14])
OC[C@@H](O)[C@@H](O)[C@H](O)[C@H](O)CO	53													
CCOC(=O)C(CC)Oc1ccc(C(=O)/C=C/c2c[nH]c3ccc(Cl)cc23)cc1 (stereo unspecified)		13	18	16	16									
COC(=O)CCCOc1ccc(C(=O)/C=C/c2c[nH]c3ccc(Cl)cc23)cc1		4	10	11	10									
CCOC(=O)CCCOc1ccc(C(=O)/C=C/c2c(C)[nH]c3ccccc23)cc1		7	13	16	14									
CCOC(=O)C(C)(C)Oc1ccc(C(=O)/C=C/c2c[nH]c3ccccc23)cc1	38	14	20	22	22	33	36							
COC(=O)CCCOc1ccc(C(=O)/C=C/c2c[nH]c3ccccc23)cc1	32	14	20	22	22	26	30							
Oc1ncnc2[nH]ncc12						49								
CCC(Oc1ccc(C(=O)/C=C/c2c(C)[nH]c3ccccc23)cc1)C(=O)OC (stereo unspecified)	29	16	26	24	27	27	28	Active	15	Active	Active	14	17	Active
CC(C)OC(=O)C(C)(C)Oc1ccc(C(=O)c2ccc(Cl)cc2)cc1 [FENOFIBRATE]		19	32	30	33			Active						
CCOC(=O)C(C)Oc1ccc(C(=O)/C=C/c2c[nH]c3ccc(Cl)cc23)cc1 (stereo unspecified)		7	11	15	13									
CCOC(=O)C(CC)Oc1ccc(C(=O)/C=C/c2c(C)[nH]c3ccccc23)cc1 (stereo unspecified)		14	20	22	22									
CCOC(=O)C(C)(C)Oc1ccc(C(=O)/C=C/c2c(C)[nH]c3ccccc23)cc1	41	20	32	33	30	36	40	Active	25	Active	Active	24	26	Active
COC(=O)CCCOc1ccc(C(=O)/C=C/c2c(C)[nH]c3ccccc23)cc1		9	15	18	16									
COC(=O)C(C)(C)Oc1ccc(C(=O)/C=C/c2c(C)[nH]c3ccccc23)cc1		6	10	12	10									
CCC(Oc1ccc(C(=O)/C=C/c2c[nH]c3ccccc23)cc1)C(=O)OC (stereo unspecified)		3	8	8	9									
Cc1c(C)c2c(c(C)c1O)CC[C@@](C)(CCC[C@H](C)CCC[C@H](C)CCCC(C)C)O2							46							
COC(=O)C(C)Oc1ccc(C(=O)/C=C/c2c[nH]c3ccc(Cl)cc23)cc1 (stereo unspecified)		3	12	14	17									
COC(=O)CCCOc1ccc(C(=O)/C=C/c2c[nH]c3ccc(OC)cc23)cc1		7	13	11	14									
COC(=O)C(C)Oc1ccc(C(=O)/C=C/c2c[nH]c3ccccc23)cc1 (stereo unspecified)		6	13	14	12									
CCOC(=O)CCCOc1ccc(C(=O)/C=C/c2c[nH]c3ccccc23)cc1	37	19	31	32	30	31	35	Active	20	Active	Active	22	20	Active
CCOC(=O)C(C)Oc1ccc(C(=O)/C=C/c2c[nH]c3ccccc23)cc1 (stereo unspecified)		8	15	13	12									
CCOC(=O)C(C)Oc1ccc(C(=O)/C=C/c2c[nH]c3ccc(OC)cc23)cc1 (stereo unspecified)		6	11	13	10									
